# According to EP0096006A2, “3-(Ureidocyclohexylamino)-propane-1,2-diol derivatives, process for their preparation, pharmaceutical preparations containing these compounds and their therapeutical use” (CIBA-GEIGY AG, priority 1982, dated 1983):
# Tests used:
# [1] = tested on: spontan hypertensiven Ratten; assay: Systolic blood pressure and heart rate in conscious spontaneously hypertensive rats (tail sphygmomanometry), oral dosing; assay type: in vivo; conditions: for Abnahme des Bludrucks: second day, 2 hours after dosing; for antihypertensive Wirkung / bradycardische (d.h. die Herzfrequenz herabsetzende) Wirkung: low doses of 10 mg/kg or below
# Text: Die in vivo blutdrucksenkende Wirkung wird entweder direkt mit einem Katheter, der z.B. in die fumurale Arterie eines Hundes eingeführt ist, oder indirekt durch Sphygmomanometrie am Rattenschwanz, und einem Uebertragungsinstrument registriert. Der Bludruck wird vor und nach der Verabreichung des Wirkstoffes in mmHg bestimmt.
# So kann die antihypertensive Wirkung und die Reduktion der Herzfrequenz bei spontan hypertensiven Ratten nachgewiesen werden, indem man indirekt durch Sphygmomanometrie am Rattenschwanz den systolischen Druck misst. Wache Ratten werden einzeln in Käfige gesperrt, welche sich in einem angenehm warmen Raum befinden. Nachdem Kontrollwerte für Blutdruck und Herzfrequenz gemessen words-n sind, werden die Testverbindungen oral einmal täglich an 2 oder 4 aufeinanderfolgenden Tagen verabreicht. Der Blutdruck wird gewöhnlich 24 Stunden nach der ersten Dosis und dann jeweils 2,0, 4,0 und 24 Stunden nach jeder täglichen Dosis bestimmt, und die Wirkung mit der bei solchen Ratten verglichen, die mit dem Trägermaterial behandelt worden sind.
# Gemäss der vorher beschriebenen Methode werden wache Ratten einzeln in Käfige gestellt. Zuerst werden die Kontrollwerte des Blutdrucks ermittelt und dann die einzelnen Testverbindungen einmal täglich, an zwei aufeinanderfolgenden Tagen, oral verabreicht.
# [2] = tested on: renal hypertensiven Hunden; assay: Arterial pressure and heart rate in conscious renal hypertensive dogs, oral dosing; assay type: in vivo, Hunde; conditions: oral dose 10 mg/kg
# Text: Die antihypertensive und bradycardische Wirkung wird ebenso an wachen, chronisch hypertensiven Hunden untersucht; die Hypertension wird dabei durch eine Schwächung der Nierenfunktion erzeugt. Der arterielle Druck wird durch direkte perkutane Punktion der femuralen Arterie, unter Verwendung einer Nadel, die an ein Uebertragungsinstrument angeschlossen ist, registriert. Nach der Aufnahme von Kontrolldaten werden die Hunde oral einmal täglich, 4 Tage lang, mit Kapseln, welche die Testverbindung enthalten, behandelt. Der Blutdruck und die Herzfrequenz werden jeweils 1,5, 3, 6 und 24 Stunden nach der täglichen Dosis bestimmt und die Ergebnisse mit den vor der Behandlung erhaltenen Kontrollwerten verglichen.
# [3] = target: β-adrenergischen Rezeptoren; assay: β-receptor binding test in vitro: inhibition of 3H-dihydroalprenolol binding to brain membrane preparation; design: species or system Kalb; conditions: calf brain caudate membranes; 10 min at 37°C; determined graphically; read-out: IC50 (Hemmung der spezifischen Bindung von 1,0 nM 3H-Dihydroalprenolol)
# Text: Die β-adrenergische Rezeptorbindungseigenschaften, welche β-adrenergische regulierende, z.B. blockierende Wirkung der genannten neuen Verbindungen anzeigen, werden in einem Test der β-Rezeptorbindung in vitro nach einer Modifikation des Verfahrens bestimmt, wie es in Life Sciences 17, 993 (1975) beschrieben ist.
# ^3H-Dihydroalprenolol wird spezifisch von Gehirnmembran-Präparaten gebunden und diese Wirkung wird durch bekannte Agonisten und Antagonisten von β-adrenergischen Rezeptoren gehemmt.
# Beim Bindungstest werden 2 ml-Proben der Suspension eines Membranpräparates (welches etwa 20 mg Kalbshirn-Caudaten entspricht) in eisgekühlte Reagenzgläser gegeben, welche ^3H-Dihydroalprenolol mit oder ohne Testverbindung, frisch gelöst in 0,1% Ascorbinsäure, enthalten. Die Endkonzentration von ^3H-Dihydroalprenolol ist 1,0 nM. Die Testverbindungen werden innerhalb einer weiten Konzentrationsreihe geprüft. Die Reagenzgläser werden 10 Minuten bei 37°C inkubiert, und die Suspensionen dann sofort unter Vakuum durch Fiberglasfilter filtriert. Die Filter werden mit 15 ml kalter 50 mM Tris-HCi (pH 7,9 bei 25°C) gewaschen, zusammen mit 12 ml Szintillationslösung in Szintillationsampullen gegeben, zunächst 90 Minuten geschüttelt und dann mit dem Zählrohr auf Radioaktivität untersucht.
# Die IC50 Werte (welche die Konzentration der Testverbindungen angeben, die nötig ist, um die spezifische Bindung der 1,0 nM ^3H-Dihydrcal- prenolol-Lösung um 50% zu verringern) werden graphisch bestimmt.
# Die erfindungsgemässen Verbindungen hemmen die β-Rezeptorbildung des Dihydroalprenolols mit IC50 Werten von […] oder darunter. Beispielsweise weisen die Verbindungen der Beispiele 1, 2a, 3b und 3c IC50-Werte von etwa […] auf.
# [4] = tested on: normotensiven Kaninchen; assay: Intraocular pressure reduction in normotensive rabbits, topical application (anti-glaucoma effect); assay type: in vivo
# Procedure: Die Anticlaucoma-Wirkung der erfindungsgemässen Verbindungen ist an der intraokularen Druckverminderung abzulesen, die an Säugetieren, z.B. bei normotensiven Kaninchen, im wesentlichen nach der von D.E. Potter und J.M. Rowland in Experimental Eye Research 27, 615-625, (1978) beschriebenen Methodik nachgewiesen werden kann. Die intraokulare Druckverminderung wird wie folgt bestimmt: 2 x 50 µl einer Lösung der Testverbindung in sterilisiertem Wasser von unterschiedlicher Konzentration werden bei männlichen, neuseeländischen Albinokaninchen, die 3-4 kg wiegen, jeweils auf ein Auge appliziert, und 2 x 50 µl des Trägermaterials werden zur Kontrolle auf das kontralaterale Auge appliziert. Der intraokulare Druck (in mm Hg) in jedem Auge wird direkt vor der Behandlung tonometrisch gemessen, und dann 1,2 bzw. 3 Stunden nach der Verabreichung. Es wird der Unterschied des intraokularen Druckes zwischen behandeltem Auge und Kontrollauge bestimmt.
# Beispielsweise zeigen die erfindungsgemässen Verbindungen der Beispiele 1 und 2a, bei einer Konzentration von etwa 20 bzw.
# [5] = 50 mg/kg p.o. once daily for 2 days
SMILES,"Abnahme des Bludrucks [1, 5] [mm Hg]",antihypertensive Wirkung [1],bradycardische (d.h. die Herzfrequenz herabsetzende) Wirkung [1],IC50 [3] [nM],also measured
N#Cc1ccccc1OCC(O)CN[C@H]1CC[C@H](N2CCNC2=O)CC1 (stereo partly drawn) [Beispiel 3g],-33.0,–,–,–,–
O=C1NCCN1[C@H]1CC[C@@H](NCC(O)COc2ccccc2OCC2CC2)CC1 (mixture of isomers) [Beispiel 3m],–,deutliche,deutliche,–,Herzfrequenz [2]: herabsetzen; mittlerer arterieller Druck [2]: ununterbrochene Verringerung
"C=CCOc1ccccc1OCC(O)CN[C@H]1CC[C@@H](N2CCNC2=O)CC1 (mixture of isomers) [Beispiel 1, cis-1-(4-[3-(o-Allyloxyphenoxy)-2-hydroxypropylamino]-cyclohexyl)-2-imidazolidinon-hemifumarat]",-79.3,deutliche,deutliche,~80,Herzfrequenz [2]: herabsetzen; mittlerer arterieller Druck [2]: ununterbrochene Verringerung; Verminderung des intraokularen Druckes ([4]; concentration about 20 nM): deutliche Verminderung
C#CCOc1cccc(OCC(O)CN[C@H]2CC[C@@H](N3CCNC3=O)CC2)c1 (stereo partly drawn) [Beispiel 3d],-52.3,–,–,–,–
COCCc1ccc(OCC(O)CN[C@H]2CC[C@@H](N3CCNC3=O)CC2)cc1 (stereo partly drawn) [Beispiel 3k],-17.6,–,–,–,–
"O=C1NCCN1[C@H]1CC[C@@H](NC[C@H](O)COc2ccccc2OCC2CC2)CC1 [Beispiel 2a, (S)-cis-1-(4-[3-(o-Cyclopropylmethoxyphenoxy)-2-hydroxypropylamino]-cyclohexyl)-2-imidazolidinon-hemifumarat]",–,deutliche,deutliche,~5,"Abnahme des Bludrucks ([1]; 30 mg/kg p.o. once daily for 2 days): -75.5 mm Hg; Verminderung des intraokularen Druckes ([4]; concentration about 6,4 nM): deutliche Verminderung"
N#Cc1ccccc1OCC(O)CN[C@H]1CC[C@@H](N2CCNC2=O)CC1 (stereo partly drawn) [Beispiel 3f],-11.0,–,–,–,–
COc1ccccc1OCC(O)CN[C@H]1CC[C@@H](N2CCNC2=O)CC1 (stereo partly drawn) [Beispiel 3a],-39.3,–,–,–,–
C#CCOc1ccccc1OCC(O)CN[C@H]1CC[C@H](N2CCNC2=O)CC1 (mixture of isomers) [Beispiel 3c],-30.0,–,–,~4,–
O=C1NCCN1[C@H]1CC[C@@H](NCC(O)COc2ccccc2-n2cccc2)CC1 (stereo partly drawn) [Beispiel 3h],-68.0,–,–,–,–
